Test results from patent publication US9957271B2, “Substituted bicyclic aza-heterocycles and analogues as sirtuin modulators” (GlaxoSmithKline, LLC, priority 2012, dated 2018).

Tests used:
[1] = biological target: T1, SIRT1 (Homo sapiens, UniProt Q96EB6); experiment: TAMRA based mass spectrometry assay of SIRT1 activity; format: biochemical; conditions: TAMRA assay
T1 sequence (Q96EB6 1-747): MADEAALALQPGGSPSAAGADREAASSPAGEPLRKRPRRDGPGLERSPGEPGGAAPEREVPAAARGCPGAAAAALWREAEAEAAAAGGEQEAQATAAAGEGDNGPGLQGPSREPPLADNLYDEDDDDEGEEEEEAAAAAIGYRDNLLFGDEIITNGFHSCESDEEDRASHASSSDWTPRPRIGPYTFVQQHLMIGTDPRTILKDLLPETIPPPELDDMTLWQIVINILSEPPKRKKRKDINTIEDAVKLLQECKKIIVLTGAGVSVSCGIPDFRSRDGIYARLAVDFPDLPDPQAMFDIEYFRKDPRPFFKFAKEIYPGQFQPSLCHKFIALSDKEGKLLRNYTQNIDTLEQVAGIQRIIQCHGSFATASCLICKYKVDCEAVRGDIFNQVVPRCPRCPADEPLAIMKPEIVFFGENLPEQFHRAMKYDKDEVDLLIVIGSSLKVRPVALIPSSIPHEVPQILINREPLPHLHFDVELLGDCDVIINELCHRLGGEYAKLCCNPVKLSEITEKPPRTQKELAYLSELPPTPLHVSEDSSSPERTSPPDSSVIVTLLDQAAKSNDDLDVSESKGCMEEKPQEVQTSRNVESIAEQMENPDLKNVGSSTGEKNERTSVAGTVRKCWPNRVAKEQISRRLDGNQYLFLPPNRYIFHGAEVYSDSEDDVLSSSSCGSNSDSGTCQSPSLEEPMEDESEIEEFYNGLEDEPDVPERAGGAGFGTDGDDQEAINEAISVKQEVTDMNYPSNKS
Outline: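 Deacetylation of a biotinylated, TAMRA-tagged p53-based peptide (0.5 μM) by 10 nM His-tagged SIRT1 with 120 μM βNAD+, 25 °C for 25 min, pH 8 Tris-acetate buffer, across a compound concentration range. Quenched by formic acid and read by mass spec as product peptide or OAADPR; activity relative to DMSO reactions, nicotinamide defining maximal inhibition.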

[2] = biological target: T1, SIRT1; experiment: Trp mass spectrometry assay of SIRT1 activity; format: biochemical; conditions: for Trp EC1.5 (μM): concentration giving 150% activation of SIRT1; for Emax: read-out: Trp % Fold Act
Outline: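 Activation readout: EC1.5 (concentration raising activity 50% over control) and percent maximum activation, from mass-spec quantitation of OAADPR or deacetylated Trp peptide. Reaction: 0.5 μM acetylated Trp peptide, 120 μM βNAD+, 10 nM bacterially expressed N-His SIRT1, pH 7.5 HEPES buffer with […], 25 min at 25° C.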

[3] = Trp assay, percent maximum fold activation
[4] = percent maximum fold activation of SIRT1, Trp peptide substrate

SMILES: O=C(Nc1cnn2ccc(-c3ccccc3C(F)(F)F)nc12)c1cc(O)ncn1 [Compound 830]
- TAMRA EC1.5 (μM) ([1]; concentration giving 150% activation of SIRT1): A (EC1.5<1 μM)
- Emax ([1]; percent maximum fold activation, read-out: TAMRA % Fold Act): ≥ 350%
- Trp EC1.5 (μM) ([2]; Trp assay): C (EC1.5>25 μM)
- Emax [2, 3]: < 350%

SMILES: Cc1cnc(NC(=O)c2c(C)nc3c(OC[C@H](O)CO)cc(-c4ccccc4C(F)(F)F)nn23)s1 [Compound 861]
- Trp EC1.5 (μM) ([2]; Trp assay): A (EC1.5<1 μM)
- Emax [2, 3]: ≥ 350%

SMILES: CO[C@H]1CCN(c2ccc3ncc(C(=O)Nc4cccnc4)n3n2)C1 [Compound 934]
- Trp EC1.5 (μM) ([2]; Trp assay): B (EC1.5 1-25 μM)
- Emax [2, 3]: < 350%

SMILES: Cn1cc2ccc(NC(=O)c3cnc4ccc(N5CCCC5C(F)(F)F)nn34)cc2n1 (stereo not shown) [Compound 1092]
- Emax [2, 4]: ≥ 350%

SMILES: C[C@H]1CCCN1c1ccc2ncc(C(=O)Nc3ccccn3)n2n1 [Compound 1053]
- Emax [2, 4]: ≥ 350%

SMILES: Cc1nn2ccc(N3CCC[C@H]3C(F)(F)F)nc2c1C(=O)Nc1ccncn1 [Compound 1048]
- Emax [2, 4]: ≥ 350%

SMILES: O=C(Nc1ccncn1)c1cnc2ccc(N3CCC[C@H](F)C3)nn12 [Compound 993]
- Emax [2, 3]: ≥ 350%

SMILES: O=C(Nc1ccc(F)cn1)c1cnc2ccc(N3CCCC(C(F)(F)F)C3)nn12 (stereo not shown) [Compound 900]
- Trp EC1.5 (μM) ([2]; Trp assay): A (EC1.5<1 μM)
- Emax [2, 3]: < 350%

SMILES: CN(C)c1ccnc(NC(=O)c2cnc3ccc(-c4cccc(OC[C@H](O)CO)c4)nn23)c1 [Compound 878]
- Trp EC1.5 (μM) ([2]; Trp assay): B (EC1.5 1-25 μM)
- Emax [2, 3]: < 350%

SMILES: O=C(Nc1cncc(F)c1)c1cnn2ccc(N3CCCC(C(F)(F)F)C3)nc12 (stereo not shown) [Compound 1009]
- Emax [2, 4]: ≥ 350%

SMILES: O=C(Nc1ccccn1)c1cnc2ccc(N3CCC(F)(F)CC3)nn12 [Compound 927]
- Trp EC1.5 (μM) ([2]; Trp assay): B (EC1.5 1-25 μM)
- Emax [2, 3]: ≥ 350%

SMILES: O=C(Nc1cccnn1)c1cnc2ccc(N3CCCC3)nn12 [Compound 895]
- Trp EC1.5 (μM) ([2]; Trp assay): C (EC1.5>25 μM)
- Emax [2, 3]: < 350%

SMILES: O=C(Nc1cccnc1)c1cnn2ccc(N3CCC(C(F)(F)F)C3)nc12 (stereo not shown) [Compound 1012]
- Emax [2, 4]: ≥ 350%

SMILES: O=C(Nc1cncc(F)c1)c1cnn2ccc(N3CCC[C@@H]3C(F)(F)F)nc12 [Compound 1089]
- Emax [2, 4]: < 350%

SMILES: O=C(Nc1cnccn1)c1cnc2ccc(N3CC(F)(F)C3)nn12 [Compound 926]
- Trp EC1.5 (μM) ([2]; Trp assay): C (EC1.5>25 μM)
- Emax [2, 3]: < 350%

SMILES: CC1CCCN1c1ccn2ncc(C(=O)Nc3cccnn3)c2n1 (stereo not shown) [Compound 1040]
- Emax [2, 4]: ≥ 350%

SMILES: O=C(Nc1cccnc1)c1cnn2ccc(N3CCC[C@H]3C(F)(F)F)nc12 [Compound 1026]
- Emax [2, 4]: ≥ 350%

SMILES: Cc1nc(NC(=O)c2cnc3ccc(N4CC[C@H](F)C4)nn23)sc1C [Compound 892]
- Trp EC1.5 (μM) ([2]; Trp assay): A (EC1.5<1 μM)
- Emax [2, 3]: < 350%

SMILES: O=C(Nc1ccncn1)c1cnc2ccc(N3CC(F)(F)C3)nn12 [Compound 921]
- Trp EC1.5 (μM) ([2]; Trp assay): C (EC1.5>25 μM)
- Emax [2, 3]: < 350%

SMILES: O=C(Nc1cncc(F)c1)c1cnn2ccc(N3CCCC3C(F)(F)F)nc12 (stereo not shown) [Compound 1001]
- Emax [2, 4]: ≥ 350%

SMILES: Cc1cncc(NC(=O)c2cnn3ccc(N4CCC[C@H]4C(F)(F)F)nc23)c1 [Compound 1027]
- Emax [2, 4]: ≥ 350%

SMILES: Cc1nc(NC(=O)c2c(C)nn3ccc(N4CCC[C@@H]4C(F)(F)F)nc23)sc1C [Compound 1082]
- Emax [2, 4]: ≥ 350%

SMILES: O=C(Nc1ccncn1)c1cnn2ccc(N3CCC[C@@H]3C(F)(F)F)nc12 [Compound 1093]
- Emax [2, 4]: < 350%

SMILES: Cc1nn2ccc(N3CCC[C@H]3C(F)(F)F)nc2c1C(=O)Nc1cccnn1 [Compound 1034]
- Emax [2, 4]: ≥ 350%

SMILES: Cc1nc2ccc(N3CCC(F)(F)C3)nn2c1C(=O)Nc1cncc(F)c1 [Compound 991]
- Emax [2, 3]: < 350%

SMILES: O=C(Nc1ccncc1F)c1cnc2ccc(N3CC(F)(F)C3)nn12 [Compound 915]
- Trp EC1.5 (μM) ([2]; Trp assay): C (EC1.5>25 μM)
- Emax [2, 3]: < 350%

SMILES: Cc1cncc(NC(=O)c2c(C)nn3ccc(N4CCC[C@H]4C(F)(F)F)nc23)c1 [Compound 1036]
- Emax [2, 4]: ≥ 350%

SMILES: O=C(Nc1cccnc1)c1cnn2ccc(N3CCCC3C(F)(F)F)nc12 (stereo not shown) [Compound 1000]
- Emax [2, 4]: ≥ 350%

SMILES: Cc1nc2ccc(N3CC[C@H](N(C)C)C3)nn2c1C(=O)Nc1ccccn1 [Compound 867]
- Trp EC1.5 (μM) ([2]; Trp assay): B (EC1.5 1-25 μM)
- Emax [2, 3]: ≥ 350%

SMILES: Cc1nc2ccc(N3CC[C@H](N(C)C)C3)nn2c1C(=O)Nc1ccc(F)cn1 [Compound 872]
- Trp EC1.5 (μM) ([2]; Trp assay): C (EC1.5>25 μM)
- Emax [2, 3]: < 350%

SMILES: Cc1nc(NC(=O)c2cnn3ccc(N4CCC(C(F)(F)F)CC4)nc23)sc1C [Compound 1065]
- Emax [2, 4]: ≥ 350%

SMILES: O=C(Nc1cccnc1)c1cnc2ccc(N3CC[C@H](O)C3)nn12 [Compound 982]
- Emax [2, 3]: < 350%

SMILES: CC1(C)CCN(c2ccc3ncc(C(=O)Nc4cccnc4)n3n2)C1 [Compound 953]
- Emax [2, 3]: ≥ 350%

SMILES: CC1(C)CCN(c2ccc3ncc(C(=O)Nc4cncc(F)c4)n3n2)C1 [Compound 956]
- Emax [2, 3]: < 350%

SMILES: COc1nccc(NC(=O)c2cnn3ccc(N4CCCC4C)nc23)n1 (stereo not shown) [Compound 1043]
- Emax [2, 4]: < 350%

SMILES: Cc1nc2ccc(N3CC[C@H](F)C3)nn2c1C(=O)Nc1ccncn1 [Compound 855]
- Trp EC1.5 (μM) ([2]; Trp assay): B (EC1.5 1-25 μM)
- Emax [2, 3]: ≥ 350%

SMILES: Cc1ccnc(NC(=O)c2c(C)nc3c(OC[C@H](O)CO)cc(-c4ccccc4C(F)(F)F)nn23)c1 [Compound 859]
- Trp EC1.5 (μM) ([2]; Trp assay): A (EC1.5<1 μM)
- Emax [2, 3]: ≥ 350%

SMILES: O=C(Nc1cncc(F)c1)c1cnc2ccc(N3CCCC3C(F)(F)F)nn12 (stereo not shown) [Compound 967]
- Emax [2, 3]: ≥ 350%

SMILES: O=C(Nc1cccnc1)c1cnc2ccc(N3CCCC3C(F)(F)F)nn12 (stereo not shown) [Compound 966, N-(pyridin-3-yl)-6-(2-(trifluoromethyl)pyrrolidin-1-yl)imidazo[1,2-b]pyridazine-3-carboxamide]
- Trp EC1.5 (μM) ([2]; Trp assay): A (EC1.5<1 μM)
- Emax [2, 3]: ≥ 350%

SMILES: O=C(Nc1cccnn1)c1cnn2ccc(N3CCC[C@H]3C(F)(F)F)nc12 [Compound 1030]
- Emax [2, 4]: ≥ 350%

SMILES: CN1CCN(c2ccc3ncc(C(=O)Nc4ccccn4)n3n2)CC1 [Compound 948]
- Emax [2, 3]: < 350%

SMILES: O=C(Nc1ccc(F)cn1)c1cnc2ccc(N3CC[C@H](F)C3)nn12 [Compound 838]
- Trp EC1.5 (μM) ([2]; Trp assay): B (EC1.5 1-25 μM)
- Emax [2, 3]: < 350%

SMILES: CN(C)c1cnnc(NC(=O)c2cnc3ccc(N4CC[C@H](F)C4)nn23)c1 [Compound 924]
- Trp EC1.5 (μM) ([2]; Trp assay): B (EC1.5 1-25 μM)
- Emax [2, 3]: < 350%

SMILES: O=C(Nc1cc(-c2cnco2)ccn1)c1cnn2ccc(N3CCC[C@@H]3C(F)(F)F)nc12 [Compound 1091]
- Emax [2, 4]: ≥ 350%

SMILES: COc1nccc(NC(=O)c2cnc3ccc(N4CC[C@H](F)C4)nn23)n1 [Compound 918]
- Trp EC1.5 (μM) ([2]; Trp assay): B (EC1.5 1-25 μM)
- Emax [2, 3]: < 350%

SMILES: O=C(Nc1ccccn1)c1cnn2ccc(N3CCC(C(F)(F)F)C3)nc12 (stereo not shown) [Compound 1011]
- Emax [2, 4]: ≥ 350%

SMILES: O=C(Nc1cc(-c2cnco2)ccn1)c1cnn2ccc(N3CCC(C(F)(F)F)CC3)nc12 [Compound 1074]
- Emax [2, 4]: ≥ 350%

SMILES: O=C(Nc1cccnn1)c1cnc2ccc(N3CCCC3C(F)(F)F)nn12 (stereo not shown) [Compound 968]
- Emax [2, 3]: ≥ 350%

SMILES: O=C(Nc1ccncc1F)c1cnc2ccc(N3CCC(F)(F)CC3)nn12 [Compound 963]
- Emax [2, 3]: < 350%

SMILES: Cc1cncc(NC(=O)c2c(C)nc3c(OC[C@H](O)CO)cc(-c4ccccc4C(F)(F)F)nn23)c1 [Compound 864]
- Trp EC1.5 (μM) ([2]; Trp assay): A (EC1.5<1 μM)
- Emax [2, 3]: ≥ 350%

SMILES: Cc1nc(NC(=O)c2cnn3ccc(N4CCC[C@@H]4C(F)(F)F)nc23)sc1C [Compound 1088]
- Emax [2, 4]: ≥ 350%

SMILES: O=C(Nc1cccnn1)c1cnc2ccc(-c3cccc(OC[C@H](O)CO)c3)nn12 [Compound 887]
- Trp EC1.5 (μM) ([2]; Trp assay): A (EC1.5<1 μM)
- Emax [2, 3]: < 350%

SMILES: O=C(Nc1cc(OC[C@@H](O)CO)cnn1)c1cnc2ccc(N3CC[C@H](F)C3)nn12 [Compound 917]
- Trp EC1.5 (μM) ([2]; Trp assay): B (EC1.5 1-25 μM)
- Emax [2, 3]: < 350%

SMILES: Cc1cncc(NC(=O)c2cnc3ccc(N4CCCC(C(F)(F)F)C4)nn23)c1 (stereo not shown) [Compound 901]
- Trp EC1.5 (μM) ([2]; Trp assay): A (EC1.5<1 μM)
- Emax [2, 3]: ≥ 350%

SMILES: Cc1cccc(NC(=O)c2c(C)nc3c(OC[C@H](O)CO)cc(-c4ccccc4C(F)(F)F)nn23)n1 [Compound 849]
- Trp EC1.5 (μM) ([2]; Trp assay): A (EC1.5<1 μM)
- Emax [2, 3]: ≥ 350%

SMILES: CN1CCN(c2ccc3ncc(C(=O)Nc4ccncn4)n3n2)CC1 [Compound 971]
- Emax [2, 3]: < 350%
